Assay results reported in patent EP0821959A2 (priority 1996, dated 1998).

What was measured:
m4 receptors = m4 receptors (Homo sapiens, UniProt P08173); type: cell-based; settings: CHO m4 cells treated with pertussis toxin
[1] = biological target: muscarinic cholinergic receptors; assay: 3H-oxotremorine-M binding study (oxotremorine-M versus N-methylscopolamine, Freedman et al.); settings: inhibition of binding of 3H-oxotremorine-M; read-out: inhibition costant (Ki)
[2] = biological target: muscarinic cholinergic receptors; settings: 3H-QNB binding assay

Chain of m4 receptors (P08173 whole entry): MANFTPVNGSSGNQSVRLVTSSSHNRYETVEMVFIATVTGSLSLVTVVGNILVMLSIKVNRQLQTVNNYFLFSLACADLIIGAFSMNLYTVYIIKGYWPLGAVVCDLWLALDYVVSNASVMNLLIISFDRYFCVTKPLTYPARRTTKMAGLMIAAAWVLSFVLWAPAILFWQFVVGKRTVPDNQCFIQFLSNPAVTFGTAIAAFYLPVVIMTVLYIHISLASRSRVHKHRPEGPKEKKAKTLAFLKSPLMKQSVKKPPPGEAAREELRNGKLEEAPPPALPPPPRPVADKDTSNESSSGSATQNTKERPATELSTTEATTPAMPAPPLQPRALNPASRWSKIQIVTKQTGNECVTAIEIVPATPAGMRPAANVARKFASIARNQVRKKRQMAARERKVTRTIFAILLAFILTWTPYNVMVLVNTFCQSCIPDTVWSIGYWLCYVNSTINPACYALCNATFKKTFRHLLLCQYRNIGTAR

## CCCCCCOc1nsnc1C1=CCCN(C)C1 [Xanomeline, 3-(4-hexyloxy-1,2,5-thiadiazol-3-yl)-1,2,5,6-tetrahydro-1-methylpyridine]
m4 receptors
  formation of cAMP: efficaciously and potently stimulated the formation of cAMP
[1]
  Ki: 0.002 µM
[2]
  IC50: < 1000 µM
